Laboratory results as given in the kinase profiling compilation of Christmann-Franck et al. (2016).

Columns and labels:
Assay in all cases: KINOMEscan competition binding
[1] = target: MAP4K4 (human) (UniProt O95819); conditions: compound 10.0 µM
[2] = target: SRPK3 (human) (UniProt Q9UPE1); conditions: compound 10.0 µM
[3] = target: BMP2K (human) (UniProt Q9NSY1); conditions: compound 10.0 µM
[4] = target: STK17A (human) (UniProt Q9UEE5); conditions: for kinase still bound, per cent of control: compound 10.0 µM
Sequence of STK17A (human) (Q9UEE5 whole entry, looked up): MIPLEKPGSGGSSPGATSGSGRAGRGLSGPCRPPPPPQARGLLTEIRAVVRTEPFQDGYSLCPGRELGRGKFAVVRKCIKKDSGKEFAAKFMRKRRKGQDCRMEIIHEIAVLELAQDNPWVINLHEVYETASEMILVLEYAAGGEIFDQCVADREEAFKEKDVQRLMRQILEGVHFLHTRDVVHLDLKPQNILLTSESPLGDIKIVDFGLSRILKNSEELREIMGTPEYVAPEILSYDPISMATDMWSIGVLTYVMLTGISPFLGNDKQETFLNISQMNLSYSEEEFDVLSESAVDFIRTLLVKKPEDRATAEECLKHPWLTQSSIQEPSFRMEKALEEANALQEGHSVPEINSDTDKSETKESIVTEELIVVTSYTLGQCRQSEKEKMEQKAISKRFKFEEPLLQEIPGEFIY

[5] = target: STK11 (human) (UniProt Q15831); conditions: compound 10.0 µM
[6] = target: RIOK3 (human) (UniProt O14730); conditions: compound 10.0 µM
Sequence of RIOK3 (human) (O14730 whole entry, looked up): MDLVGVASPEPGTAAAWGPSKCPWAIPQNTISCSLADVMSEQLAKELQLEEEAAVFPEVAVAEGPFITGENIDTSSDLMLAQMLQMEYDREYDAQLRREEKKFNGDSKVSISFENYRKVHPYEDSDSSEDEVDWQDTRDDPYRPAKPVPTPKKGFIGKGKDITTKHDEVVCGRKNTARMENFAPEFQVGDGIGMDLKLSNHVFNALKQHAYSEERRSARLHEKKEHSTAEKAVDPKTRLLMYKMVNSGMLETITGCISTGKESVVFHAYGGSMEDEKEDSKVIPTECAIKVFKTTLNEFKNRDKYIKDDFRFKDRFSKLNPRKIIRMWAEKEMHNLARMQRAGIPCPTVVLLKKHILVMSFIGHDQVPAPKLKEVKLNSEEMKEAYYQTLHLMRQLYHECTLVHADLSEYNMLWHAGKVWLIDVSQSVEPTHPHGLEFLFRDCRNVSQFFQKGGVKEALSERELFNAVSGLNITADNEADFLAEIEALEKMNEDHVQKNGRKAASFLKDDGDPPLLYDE

[7] = target: PRKD3 (human) (UniProt O94806); conditions: compound 10.0 µM
[8] = target: CHUK (human) (UniProt O15111); conditions: compound 10.0 µM
Sequence of CHUK (human) (O15111 whole entry, looked up): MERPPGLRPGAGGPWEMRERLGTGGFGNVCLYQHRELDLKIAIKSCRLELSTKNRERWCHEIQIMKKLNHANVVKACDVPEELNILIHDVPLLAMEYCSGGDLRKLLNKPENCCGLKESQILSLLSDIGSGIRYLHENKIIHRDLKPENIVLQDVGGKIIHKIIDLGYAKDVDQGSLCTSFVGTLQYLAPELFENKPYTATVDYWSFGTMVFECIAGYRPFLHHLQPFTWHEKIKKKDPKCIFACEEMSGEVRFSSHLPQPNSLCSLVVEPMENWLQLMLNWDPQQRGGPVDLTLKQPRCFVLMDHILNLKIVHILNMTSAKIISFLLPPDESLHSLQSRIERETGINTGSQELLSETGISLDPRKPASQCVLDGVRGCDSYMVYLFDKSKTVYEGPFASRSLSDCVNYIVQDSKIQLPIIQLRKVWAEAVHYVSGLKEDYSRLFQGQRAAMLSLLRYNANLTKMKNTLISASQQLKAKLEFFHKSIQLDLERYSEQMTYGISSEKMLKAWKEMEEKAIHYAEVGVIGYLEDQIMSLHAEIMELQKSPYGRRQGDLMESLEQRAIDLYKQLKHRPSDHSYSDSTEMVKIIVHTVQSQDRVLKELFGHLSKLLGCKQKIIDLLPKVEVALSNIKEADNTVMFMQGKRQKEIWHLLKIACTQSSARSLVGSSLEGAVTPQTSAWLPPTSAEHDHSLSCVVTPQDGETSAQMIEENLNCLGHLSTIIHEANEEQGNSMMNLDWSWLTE

[9] = target: SRPK2 (human) (UniProt P78362); conditions: compound 10.0 µM
Sequence of SRPK2 (human) (P78362 whole entry, looked up): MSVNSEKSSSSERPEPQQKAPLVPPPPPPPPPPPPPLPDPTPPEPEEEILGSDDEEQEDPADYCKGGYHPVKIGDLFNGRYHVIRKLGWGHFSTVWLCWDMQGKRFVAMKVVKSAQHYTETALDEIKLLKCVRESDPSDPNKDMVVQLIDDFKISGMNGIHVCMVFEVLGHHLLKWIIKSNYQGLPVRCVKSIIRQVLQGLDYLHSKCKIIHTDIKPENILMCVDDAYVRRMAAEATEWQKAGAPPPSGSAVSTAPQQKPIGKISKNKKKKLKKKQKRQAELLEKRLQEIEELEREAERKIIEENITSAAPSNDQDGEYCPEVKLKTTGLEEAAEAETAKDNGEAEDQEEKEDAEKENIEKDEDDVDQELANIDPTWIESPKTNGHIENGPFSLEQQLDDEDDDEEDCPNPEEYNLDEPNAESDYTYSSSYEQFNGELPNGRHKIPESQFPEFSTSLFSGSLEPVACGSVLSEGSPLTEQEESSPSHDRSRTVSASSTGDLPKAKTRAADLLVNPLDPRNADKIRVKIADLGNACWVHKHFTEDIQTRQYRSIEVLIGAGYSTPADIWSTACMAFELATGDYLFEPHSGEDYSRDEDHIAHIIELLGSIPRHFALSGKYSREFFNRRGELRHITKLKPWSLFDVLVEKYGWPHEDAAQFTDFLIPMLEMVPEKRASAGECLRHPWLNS

[10] = test system: FLT3 (human), P36888 [N841I]; conditions: compound 10.0 µM
[11] = target: DMPK (human) (UniProt Q09013); conditions: compound 10.0 µM
Sequence of DMPK (human) (Q09013 whole entry, looked up): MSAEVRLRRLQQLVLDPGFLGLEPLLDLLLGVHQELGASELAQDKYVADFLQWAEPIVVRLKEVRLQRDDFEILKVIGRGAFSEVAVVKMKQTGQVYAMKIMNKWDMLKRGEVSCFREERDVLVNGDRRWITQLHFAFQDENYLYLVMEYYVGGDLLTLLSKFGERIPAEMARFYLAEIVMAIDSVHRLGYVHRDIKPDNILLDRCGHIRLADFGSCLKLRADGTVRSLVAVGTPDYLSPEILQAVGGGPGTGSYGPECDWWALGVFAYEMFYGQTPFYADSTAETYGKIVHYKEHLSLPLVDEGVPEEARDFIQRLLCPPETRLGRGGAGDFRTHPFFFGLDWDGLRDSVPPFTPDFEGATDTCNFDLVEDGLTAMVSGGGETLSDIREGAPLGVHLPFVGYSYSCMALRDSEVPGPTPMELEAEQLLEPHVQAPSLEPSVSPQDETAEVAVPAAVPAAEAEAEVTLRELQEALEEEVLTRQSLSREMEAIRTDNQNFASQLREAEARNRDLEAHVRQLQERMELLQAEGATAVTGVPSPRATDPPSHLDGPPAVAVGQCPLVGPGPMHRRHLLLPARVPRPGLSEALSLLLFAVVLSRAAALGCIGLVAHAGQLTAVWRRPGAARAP

[12] = test system: KIT (human), P10721 [V559D]; conditions: compound 10.0 µM
[13] = target: PIP4K2B (human) (UniProt P78356); conditions: compound 10.0 µM
Sequence of PIP4K2B (human) (P78356 whole entry, looked up): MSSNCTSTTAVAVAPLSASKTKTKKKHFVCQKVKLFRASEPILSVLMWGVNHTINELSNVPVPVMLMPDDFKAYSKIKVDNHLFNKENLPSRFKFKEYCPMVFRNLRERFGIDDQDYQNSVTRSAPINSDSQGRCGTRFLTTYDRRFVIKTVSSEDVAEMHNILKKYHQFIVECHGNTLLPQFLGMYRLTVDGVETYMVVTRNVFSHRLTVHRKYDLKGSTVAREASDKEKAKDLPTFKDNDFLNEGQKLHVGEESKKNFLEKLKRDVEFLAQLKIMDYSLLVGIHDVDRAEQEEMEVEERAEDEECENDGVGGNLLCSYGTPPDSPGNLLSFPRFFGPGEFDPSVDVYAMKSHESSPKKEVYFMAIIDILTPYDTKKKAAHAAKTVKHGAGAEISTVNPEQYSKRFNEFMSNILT

[14] = target: PIM2 (human) (UniProt Q9P1W9); conditions: compound 10.0 µM
Sequence of PIM2 (human) (Q9P1W9 whole entry, looked up): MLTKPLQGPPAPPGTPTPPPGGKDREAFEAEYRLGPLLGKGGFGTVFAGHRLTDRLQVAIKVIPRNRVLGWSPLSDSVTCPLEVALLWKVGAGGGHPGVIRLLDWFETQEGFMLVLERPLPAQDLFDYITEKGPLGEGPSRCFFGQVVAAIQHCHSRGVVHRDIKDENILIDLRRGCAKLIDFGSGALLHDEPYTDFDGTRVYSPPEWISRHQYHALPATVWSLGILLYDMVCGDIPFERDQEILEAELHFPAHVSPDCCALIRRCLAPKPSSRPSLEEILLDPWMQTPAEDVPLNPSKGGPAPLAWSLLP

[15] = target: MAP4K2 (human) (UniProt Q12851); conditions: compound 10.0 µM
[16] = target: TGFBR2 (human) (UniProt P37173); conditions: compound 10.0 µM
[17] = target: RIPK2 (human) (UniProt O43353); conditions: compound 10.0 µM
[18] = target: TTK (human) (UniProt P33981); conditions: compound 10.0 µM
[19] = target: ACVR1 (human) (UniProt Q04771); conditions: compound 10.0 µM
[20] = test system: FLT3 (human), P36888 [D835Y]; conditions: compound 10.0 µM
[21] = target: BMPR1B (human) (UniProt O00238); conditions: compound 10.0 µM
Sequence of BMPR1B (human) (O00238 whole entry, looked up): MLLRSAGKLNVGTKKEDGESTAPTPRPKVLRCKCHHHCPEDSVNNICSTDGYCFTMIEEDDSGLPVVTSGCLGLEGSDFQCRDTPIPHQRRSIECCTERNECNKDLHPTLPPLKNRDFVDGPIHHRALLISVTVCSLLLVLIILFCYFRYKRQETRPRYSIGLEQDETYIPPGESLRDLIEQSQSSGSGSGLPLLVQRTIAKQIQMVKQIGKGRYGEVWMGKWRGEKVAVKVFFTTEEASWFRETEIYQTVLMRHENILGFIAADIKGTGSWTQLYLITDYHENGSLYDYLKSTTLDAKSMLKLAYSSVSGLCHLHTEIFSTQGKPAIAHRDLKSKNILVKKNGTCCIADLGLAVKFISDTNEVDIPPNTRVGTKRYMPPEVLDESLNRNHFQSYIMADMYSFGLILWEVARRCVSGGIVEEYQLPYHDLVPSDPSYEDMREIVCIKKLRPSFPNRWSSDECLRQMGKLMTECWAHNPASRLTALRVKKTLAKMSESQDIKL

[22] = target: PLK4 (human) (UniProt O00444); conditions: compound 10.0 µM
[23] = target: MYLK3 (human) (UniProt Q32MK0); conditions: compound 10.0 µM
[24] = target: MYLK4 (human) (UniProt Q86YV6); conditions: compound 10.0 µM
[25] = target: STK33 (human) (UniProt Q9BYT3); conditions: compound 10.0 µM
[26] = target: AURKB (human) (UniProt Q96GD4); conditions: compound 10.0 µM
[27] = target: TAOK3 (human) (UniProt Q9H2K8); conditions: compound 10.0 µM
[28] = target: PIP5K1A (human) (UniProt Q99755); conditions: compound 10.0 µM
[29] = target: RPS6KA2 KD2 (human) (UniProt Q15349); conditions: compound 10.0 µM
[30] = target: CSNK1G1 (human) (UniProt Q9HCP0); conditions: compound 10.0 µM
[31] = target: CSNK1G3 (human) (UniProt Q9Y6M4); conditions: compound 10.0 µM
[32] = target: CSNK1D (human) (UniProt P48730); conditions: compound 10.0 µM
[33] = target: PHKG2 (human) (UniProt P15735); conditions: compound 10.0 µM
[34] = test system: FLT3 (human), P36888 [D835H]; conditions: compound 10.0 µM
[35] = test system: FLT3 (human), P36888 [ITD]; conditions: compound 10.0 µM
[36] = target: RPS6KA6 KD2 (human) (UniProt Q9UK32); conditions: compound 10.0 µM
[37] = target: MAPK8 (human) (UniProt P45983); conditions: compound 10.0 µM
[38] = target: STK24 (human) (UniProt Q9Y6E0); conditions: compound 10.0 µM
[39] = target: TNK1 (human) (UniProt Q13470); conditions: compound 10.0 µM
[40] = target: GSK3A (human) (UniProt P49840); conditions: compound 10.0 µM
[41] = target: BRSK2 (human) (UniProt Q8IWQ3); conditions: compound 10.0 µM
[42] = target: PDGFRB (human) (UniProt P09619); conditions: compound 10.0 µM

Sequence of SRPK3 (human) (Q9UPE1 whole entry, looked up): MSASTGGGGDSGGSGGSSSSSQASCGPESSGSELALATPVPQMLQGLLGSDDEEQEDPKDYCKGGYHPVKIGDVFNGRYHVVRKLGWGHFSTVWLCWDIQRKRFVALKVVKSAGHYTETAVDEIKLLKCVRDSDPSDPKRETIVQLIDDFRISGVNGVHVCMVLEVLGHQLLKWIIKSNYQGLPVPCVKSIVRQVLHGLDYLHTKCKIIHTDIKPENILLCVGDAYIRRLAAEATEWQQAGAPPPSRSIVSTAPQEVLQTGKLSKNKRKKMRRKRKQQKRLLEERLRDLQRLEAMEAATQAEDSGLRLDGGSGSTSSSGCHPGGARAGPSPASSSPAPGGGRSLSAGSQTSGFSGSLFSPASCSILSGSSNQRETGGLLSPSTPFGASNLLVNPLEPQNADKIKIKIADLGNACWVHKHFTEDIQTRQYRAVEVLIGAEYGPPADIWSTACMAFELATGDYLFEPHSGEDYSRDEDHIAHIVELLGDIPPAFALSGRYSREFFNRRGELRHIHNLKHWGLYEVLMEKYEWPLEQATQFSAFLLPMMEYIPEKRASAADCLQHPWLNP

CS(=O)(=O)Nc1ccc(-c2cc(/C=C3\SC(=N)NC3=O)c[nH]c2=O)cc1
kinase still bound, per cent of control [1]: 25%
kinase still bound, per cent of control [2]: 14%
kinase still bound, per cent of control [3]: 2.2%
kinase still bound, per cent of control [4]: 3.4%
kinase still bound, per cent of control [5]: 7%
kinase still bound, per cent of control [6]: 6%
kinase still bound, per cent of control [7]: 33%
kinase still bound, per cent of control [8]: 15%
kinase still bound, per cent of control [9]: 2.3%
kinase still bound, per cent of control [10]: 30%
kinase still bound, per cent of control [11]: 6.4%
kinase still bound, per cent of control [12]: 12%
kinase still bound, per cent of control [13]: 13%
kinase still bound, per cent of control [14]: 3.4%
kinase still bound, per cent of control [15]: 12%
kinase still bound, per cent of control [16]: 0.85%
kinase still bound, per cent of control [17]: 11%
kinase still bound, per cent of control [18]: 33%
kinase still bound, per cent of control [19]: 27%
kinase still bound, per cent of control [20]: 20%
kinase still bound, per cent of control [21]: 4.1%
kinase still bound, per cent of control [22]: 24%

Nc1cccc(-c2cc(/C=C3\SC(=O)NC3=O)c[nH]c2=O)c1
kinase still bound, per cent of control [23]: 2%
kinase still bound, per cent of control [24]: 2.8%
kinase still bound, per cent of control [25]: 19%
kinase still bound, per cent of control [2]: 13%
kinase still bound, per cent of control [3]: 1%
kinase still bound, per cent of control [4]: 0.3%
kinase still bound, per cent of control [5]: 19%
kinase still bound, per cent of control [6]: 8.6%
kinase still bound, per cent of control [26]: 8%
kinase still bound, per cent of control [27]: 24%
kinase still bound, per cent of control [8]: 30%
kinase still bound, per cent of control [28]: 17%
kinase still bound, per cent of control [29]: 3.8%
kinase still bound, per cent of control [9]: 26%
kinase still bound, per cent of control [30]: 19%
kinase still bound, per cent of control [31]: 13%
kinase still bound, per cent of control [32]: 23%
kinase still bound, per cent of control [11]: 27%
kinase still bound, per cent of control [13]: 6.6%
kinase still bound, per cent of control [14]: 1%
kinase still bound, per cent of control [15]: 30%
kinase still bound, per cent of control [16]: 26%
kinase still bound, per cent of control [21]: 2.2%
kinase still bound, per cent of control [33]: 11%

O=C1NC(=O)/C(=C/c2c[nH]c(=O)c(-c3ccc(N4CCNCC4)nc3)c2)S1
kinase still bound, per cent of control [23]: 2.6%
kinase still bound, per cent of control [34]: 71%
kinase still bound, per cent of control [1]: 4.9%
kinase still bound, per cent of control [25]: 2.7%
kinase still bound, per cent of control [2]: 6%
kinase still bound, per cent of control [3]: 2%
Kd [4]: 190 nM
kinase still bound, per cent of control [4]: 0.05%
kinase still bound, per cent of control [5]: 17%
kinase still bound, per cent of control [6]: 3.4%
kinase still bound, per cent of control [26]: 71%
kinase still bound, per cent of control [7]: 13%
kinase still bound, per cent of control [27]: 8.6%
kinase still bound, per cent of control [8]: 53%
kinase still bound, per cent of control [35]: 75%
kinase still bound, per cent of control [28]: 28%
kinase still bound, per cent of control [29]: 1.2%
kinase still bound, per cent of control [9]: 10%
kinase still bound, per cent of control [30]: 35%
kinase still bound, per cent of control [31]: 3.2%
kinase still bound, per cent of control [10]: 67%
kinase still bound, per cent of control [32]: 13%
kinase still bound, per cent of control [11]: 3.6%
kinase still bound, per cent of control [12]: 70%
kinase still bound, per cent of control [13]: 1.1%
kinase still bound, per cent of control [36]: 29%
kinase still bound, per cent of control [14]: 1.1%
kinase still bound, per cent of control [37]: 60%
kinase still bound, per cent of control [15]: 32%
kinase still bound, per cent of control [16]: 18%
kinase still bound, per cent of control [38]: 71%
kinase still bound, per cent of control [39]: 100%
kinase still bound, per cent of control [17]: 9.9%
kinase still bound, per cent of control [40]: 75%
kinase still bound, per cent of control [18]: 59%
kinase still bound, per cent of control [19]: 20%
kinase still bound, per cent of control [41]: 100%
kinase still bound, per cent of control [42]: 67%
kinase still bound, per cent of control [20]: 60%
kinase still bound, per cent of control [21]: 4.8%
kinase still bound, per cent of control [22]: 90%
kinase still bound, per cent of control [33]: 6.6%
